Source: patent EP0258134A1, “Therapeutical compositions containing benzhydryl thiomethane derivatives” (LABORATOIRE L. LAFON, priority 1986, dated 1988)
Marks after values point to notes of the source that are not given here.

Columns and labels:
Type in all cases: in vivo
[1] = test system: souris femelles de souche OF₁; test: Delayed hypersensitivity reaction to sheep red blood cells; details: for Ind. Activité / % d'augmentation du coussinet (mm) m: voie orale; for % d'augmentation du coussinet (mm) m: trois jours avant immunisation
Text: Selon la méthode de Miller, Lagrange et Mackaness ("Immunopotentiation with BCG II modulation of the response to sheep red blood cells", Journal of the National Cancer Institute 1973, 51, 5, 1669 - 1676).
Le composé à tester est administré par voie orale a des souris femelles de souche OF₁ trois jours avant immunisation.
Les résultats sont exprimés en pourcentage d'augmentation du coussinet plantaire.

[2] = test system: rat; test: Search for stereotyped movements, rat
Text: Des lots de 6 rats reçoivent une injection du composé CRL 41 334 ou d'amphétamine, puis sont immédiatement placés dans des boîtes de petites dimensions (20 x 10 x 10 cm) où leur comportement stéréotypeé est coté de 0 à 3 jusqu'à extinction de l'effet.

[3] = test system: souris; test: Interaction with barbital; details: souris, 8, 32 et 128mg/kg, barbital 220 mg/kg i.p.
Procedure: Une demi-heure après l'administration du composé CRL 41 334, des lots de 20 souris reçoivent une injection intrapéritonéale de barbital ([…]).
Une demi-heure après l'administration du CRL 40 956 des lots de 10 souris reçoivent une injection intrapéritonéale de 200 mg/kg de barbital.

[4] = test system: souris; test: Intergroup aggressiveness; details: 32 et 128 mg/kg
Procedure: Après avoir séjourné pendant 3 semaines dans chacune des moitiés d'une cage séparées par une cloison opaque, des groupes de 3 souris reçoivent le composé CRL 41 334. Une demi-heure plus tard, les deux groupes d'une même cage sont réunis par retrait de la cloison et on note le nombre de combats qui surviennent en 10 minutes. Le test est pratiqué pour moitié sur les souris habituelles (NMRI, C.E.R. Janvier) et pour moitié sur des souris NMRI (Iffa Credo).
Après avoir séjourné pendant 3 semaines dans chacune des moitiés d'une cage séparée par une cloison opaque, des groupes de 3 souris reçoivent le CRL 40 956. Une demi-heure plus tard, les deux groupes d'une même cage sont réunis par retrait de la cloison et on note le nombre de combats qui surviennent en 10 minutes.

[5] = test system: rat; test: Interaction with apomorphine, rat; details: 16 et 64 mg/kg, apomorphine 0,5 mg/kg s.c.
Procedure: Le composé CRL 41 334 est administré à des lots de 6 rats une demi-heure avant l'injection sous-cutanée de 0,5 mg/kg d'apomorphine.
Le CRL 40 956 est administré à des lots de 6 rats une demi-heure avant l'injection sous cutanée de 0,5 mg/kg d'apomorphine.

[6] = test system: rat; test: Global behaviour and reactivities, rat, i.p.
Procedure: Le composé CRL 41 334, en suspension dans une solution de gomme arabique, a été administré par voie intrapéritonéale sous un volume de 20 ml/kg chez la souris (mâle, NMRI, C.E.R. Janvier) et de 5 ml/kg chez le rat (mâle, CD₁; SPRAGUE DAWLEY, Charles River).
Des lots de 3 animaux sont observés avant, puis 15 mn, 30 mn, 1h, 2h, 3h et 24 heures après l'administration du composé CRL 41 334.
Le CRL 40 956, en suspension dans une solution de gomme arabique a été administré par voie intrapéritonéale sous un volume de 20 ml/kg chez la souris (mâle, NMRI, Evic Céba) et de 5 ml/kg chez le rat (mâle, CD₁, Sprague Dawley, Charles River).
Des lots de 3 animaux sont observés avant, puis 15 mn, 30 mn, 1 h, 2 h, 3 h et 24 heures après l'administration de CRL 40 956.

[7] = test system: souris; test: Traction test; details: half an hour after administration
Text: (§1) Le test est pratiqué sur des lots de 10 souris, une demi-heure après l'administration du composé CRL 41 334.

[8] = test system: souris; test: Spontaneous motility (actimeter)
Procedure: Après avoir reçu le composé CRL 41 334, les souris sont placées en actimètre où leur motilité est enregistrée pendant 30 minutes.
Une demi-heure après avoir reçu le CRL 41 055, les souris (6 par dose, 12 témoins) sont placées en actimètre où leur motilité est enregistrée pendant 30 minutes.
Une demi-heure après avoir reçu le CRL 40 956, les souris (6 par dose, 12 témoins) sont placées en actimètre ou leur motilité est enregistrée pendant 30 minutes.

[9] = test system: souris; test: Interaction with oxotremorine, mouse; details: oxotrémorine 0,5 mg/kg i.p.
Procedure: Le composé CRL 41 334 est administré à des lots de 6 souris une demi-heure avant l'injection intrapéritonéale de 0,5 mg/kg d'oxotrémorine.

[10] = test system: rat; test: Interaction with amphetamine, rat; details: rat, 16, mais surtout 64 mg/kg, amphétamine 2 mg/kg i.p.
Procedure: L'amphétamine (2 mg/kg) est injectée par Voie intrapéritonéale à des lots de 6 rats, une demi-heure après l'administration du composé CRL 41 334.

[11] = test system: souris; test: Motility reduced by hypoxic aggression
Procedure: Une demi-heure après avoir reçu le composé CRL 41 334, les souris (10 par dose, 20 témoins) sont soumises à une anoxie hypobare aigüe (dépression de 60 mmHg en 90 secondes, détente de 45 secondes), puis elles sont placées en actimètre où leur motilité est enregistrèe pendant 10 minutes.

[12] = test system: souris; test: Four-plate test; details: half an hour after administration
Text: as §1

NC(=O)CSC(c1ccc(F)cc1)c1ccc(F)cc1 [CRL 41 334, 2-(4,4ʹ-difluorobenzhydrylthio)acétamide]
Ind. Activité ([1]; Exp 1, 0,1 mg/kg): 1,15 | % d'augmentation du coussinet (mm) m ([1]; Exp 1, 0,1 mg/kg): 10,6% | Ind. Activité ([1]; Exp 1, 1 mg/kg): 1,10 | % d'augmentation du coussinet (mm) m ([1]; Exp 1, 1 mg/kg): 10,2% | Ind. Activité ([1]; Exp 1, 10 mg/kg): 1,29 | % d'augmentation du coussinet (mm) m ([1]; Exp 1, 10 mg/kg): 12,0% | Ind. Activité ([1]; Exp 1, 100 mg/kg): 1,59 | % d'augmentation du coussinet (mm) m ([1]; Exp 1, 100 mg/kg): 14,7^x % | Ind. Activité ([1]; Exp 2, 0,1 mg/kg): 1,31 | % d'augmentation du coussinet (mm) m ([1]; Exp 2, 0,1 mg/kg): 11,0% | Ind. Activité ([1]; Exp 2, 1 mg/kg): 1,25 | % d'augmentation du coussinet (mm) m ([1]; Exp 2, 1 mg/kg): 10,5% | Ind. Activité ([1]; Exp 2, 10 mg/kg): 1,34 | % d'augmentation du coussinet (mm) m ([1]; Exp 2, 10 mg/kg): 11,2% | Ind. Activité ([1]; Exp 2, 100 mg/kg): 1,56 | % d'augmentation du coussinet (mm) m ([1]; Exp 2, 100 mg/kg): 13,1% | action immunostimulante ([1]; overall statement in the text): une action immunostimulante | durée des stéréotypies ([2]; 128 mg/kg): > 420 min | stéréotypies atteignent leur maximum ([2]; 128 mg/kg): 120 to 150 min | intensité des stéréotypies ([2]; 64 et 128 mg/kg, compared with amphétamine): comparable à celle obtenue respectivement avec 1 et 2 mg | durée du sommeil barbiturique [3]: diminution importante de la durée du sommeil barbiturique | nombre de combats [4]: diminue le nombre de combats | stéréotypies induites par l'apomorphine [5]: potentialise | comportement et réactivités ([6]; rat, 64 mg/kg i.p.): sédation pendant 15 minutes | diamètre pupillaire ([6]; rat, 64 mg/kg i.p., à 1 heure): mydriase très modérée et brève | comportement, réactivités, variation du diamètre pupillaire et de la température rectale ([6]; rat, 1, 4 et 16 mg/kg i.p.): comparables à ceux du lot témoin | incapacité motrice [7]: ne provoque pas d'incapacité motrice majeure | motilité spontanée ([8]; souris, 128 mg/kg, 30 minutes avant passage dans l'actimètre): cet effet n'apparaît plus | motilité spontanée ([8]; souris, 8, mais surtout 32 et 128 mg/kg, 2 heures avant passage dans l'actimètre): augmentation de la motilité spontanée | motilité spontanée ([8]; souris, 32 et 64 mg/kg, 30 minutes avant passage dans l'actimètre): augmentation de la motilité | Action sur la température ([9]; 128 mg/kg): aggrave l'hypothermie induite par l'oxotrémorine | Action sur les symptômes chlolinergiques périphériques ([9]; 128 mg/kg): diminue la défécation sans modifier la salivation et la lacrymation | Action sur les tremblements [9]: ne sont pas modifiés | stéréotypies amphétaminiques [10]: potentialise les stéréotypies amphétaminiques | récupération motrice après anoxie hypobare ([11]; 32 et 128 mg/kg): amélioration est importante | récupération motrice après anoxie hypobare ([11]; dès la dose de 2mg/kg): amélioration de la récupération | nombre de passages punis [12]: ne modifie pas
